Assay results published in patent US20250049966A1, “SMALL MOLECULE TRACER FOR IMAGING ALPHA-SYNUCLEIN AGGREGATES” (Fudan University, priority 2021, published 2025).
Entries after “also recorded” stand apart in the source; their conditions may differ.

Molecular target: T1, human α-synuclein aggregates (Homo sapiens, UniProt P37840)
T1 construct: made in house; host or cells: E. coli BL21 (DE3)
Assay: Fluorescence saturation binding of compounds to α-synuclein aggregates
Details: not given
Procedure: 1 μL ampicillin anti-plasmid with α-synuclein in the correct sequence was mixed with 100 μL BL21 (DE3) receptive cells, cooled in an ice bath, added in 600 μL LB medium, and cultured in a 220 rpm shaking bed at 37° C. for 90 min. 150 μL cultured bacterial solution was added to the sterilized dish coated with ampicillin medium evenly. Positive clonal colonies were selected and added to the configured ampicillin medium and cultured in an incubator at 37° C. The cultured positive clones were poured into 1 L of 2×YT medium and cultured in a 220 rpm shaker at 37° C. to make OD 600 0.6 and then cooled to 18° C. Each medium was induced to culture for 16 hours by adding 1 ml of IPTG (500 mM).
The bacteria were centrifuged at high speed for 30 min after ultrasonic. The supernatant was collected to remove DNA and hetero-proteins by Ni-NTA chromatography. α-synuclein monomer was purified by molecular exclusion chromatography and the purity was verified by SDS-PAGE discontinuous electrophoresis.
α-synuclein monomers were prepared into a buffer solution containing 1×PBS, wherein the final protein concentration was 100 μM (about 5 mg/mL), and incubated in a 1000 rpm shaker at 37° C. for 7 days to obtain α-synuclein aggregates. The initial and final concentrations of the monomer protein were determined by the BCA method.
10 mM mother solution of DMSO was prepared from 1 mg of the compound, then diluted to 20 μM with PBS, and made gradient dilution 7 times (3× each dilution); 30 μL of test compound was added to the 384-well plate, following the experimental group was added to 30 μL α-synuclein aggregates (3 μM), and the control group was added to the same amount of PBS. After the 384-well plate was incubated shaking at 50 rpm at room temperature for 1 hour, the plate was taken out to detect the maximum absorption and emission wavelengths of the compound with an ELISA Microplate Reader, and the fluorescence values were detected at these wavelengths, too. The fluorescence changes in different concentrations of compounds were calculated using the experimental group data minus the control group data, and the protein-binding affinity of compounds was obtained using the Saturation binding module of GraphPad Prism.
The binding affinity of the Formula I compound to α-synuclein aggregates is determined by the above method, and the dissociation equilibrium constant Kd is shown in Table 1.

| Compound | Kd [nM] |
| --- | --- |
| CN1CCN(c2ccc3oc(-c4ccc(N(C)C)nc4)nc3c2)C(=O)C1 [I-4] | 100 to 200 |

Same assay, conditions: fluorescence method, α-synuclein aggregates (3 μM), room temperature 1 hour; read-out: Binding affinity (Kd) on human α-synuclein aggregates

| Compound | Kd [nM] |
| --- | --- |
| Fc1ccc(-c2ccc3nc(-c4ccc(N5CCCC5)nc4)oc3c2)cn1 [I-6] | 200 to 500 |
| CN(C)c1ccc(-c2nc3cc(-c4cccnc4)ccc3o2)cn1 [I-1] | 500 to 1000 |
| CN(C)c1ccc(-c2nc3cc(N4CCN(CCF)CC4=O)ccc3o2)cn1 [I-10] | 200 to 500 |
| CN(C)c1ccc(-c2nc3cc(-c4cccnc4)ccc3o2)cc1 [I-2] | 500 to 1000 |
| Fc1ccc(-c2ccc3oc(-c4ccc(N5CCCC5)nc4)nc3c2)cn1 [I-5] | 200 to 500 |

Molecular target: T2, Lewy bodies and Lewy neurites (α-synuclein lesions) (Homo sapiens, UniProt P37840)
T2 construct: from tissue; host or cells: human amygdala, DLB patient, fresh frozen sections
Assay: Fluorescence staining of brain slices from patients of dementia with Lewy body (DLB)
Format: binding
Details: 30 μM compound, frozen amygdala sections 20 μm, fluorescence microscopy, FIG. 1
Procedure: Brain slices from patients with dementia with Lewy bodies were taken from the amygdala of a deceased person in stage 2 of dementia with Lewy bodies. Frozen sections of the amygdala with rich α-synuclein were performed with a thickness of 20 μm.
(§1) The tested compound was diluted to 30 μM with PBS solution containing 50% EtOH, following incubated with the fresh frozen brain sections at room temperature for 30 minutes, then washed with 50% ethanol solution for 5 minutes and ultra-pure water twice for 3 minutes each time in sequence. After the sections were buried with an embedding agent (VECTASHIELD H-1000, Vector Laboratories), images of the lesion accumulation area on the sections were obtained by fluorescence microscopy. Analysis software (Image J) was used to quantify the fluorescence radiance of both the lesion area and the area of the non-forming lesion (background) to evaluate binding selectivity.

| Compound | Staining of Lewy bodies and Lewy neurites in DLB patient brain slices |
| --- | --- |
| Fc1ccc(-c2ccc3nc(-c4ccc(N5CCCC5)nc4)oc3c2)cn1 [I-6] | can stain Lewy bodies and Lewy neurites; also recorded: can well label the α-synuclein in Lewy bodies and Lewy neurites |
| CN1CCN(c2ccc3oc(-c4ccc(N(C)C)nc4)nc3c2)C(=O)C1 [I-4] | can stain Lewy bodies and Lewy neurites; also recorded: can well label the α-synuclein in Lewy bodies and Lewy neurites |
| Fc1ccc(-c2ccc3oc(-c4ccc(N5CCCC5)nc4)nc3c2)cn1 [I-5] | can stain Lewy bodies and Lewy neurites; also recorded: can well label the α-synuclein in Lewy bodies and Lewy neurites |

Same assay, conditions: DLB versus AD brain slices, FIG. 1 and FIG. 2

| Compound | Binding to α-synuclein pathological tissue compared with Aβ and Tau pathological tissue (selectivity) |
| --- | --- |
| Fc1ccc(-c2ccc3nc(-c4ccc(N5CCCC5)nc4)oc3c2)cn1 [I-6] | significantly stronger |
| CN1CCN(c2ccc3oc(-c4ccc(N(C)C)nc4)nc3c2)C(=O)C1 [I-4] | significantly stronger |
| Fc1ccc(-c2ccc3oc(-c4ccc(N5CCCC5)nc4)nc3c2)cn1 [I-5] | significantly stronger |

Molecular target: T3, Aβ lesions (Homo sapiens, UniProt P05067)
T3 construct: from tissue
Assay: Fluorescence staining of brain slices from patients with Alzheimer's disease (AD), Aβ
Format: binding
Details: 30 μM compound, superior temporal gyrus sections 6 μm, fluorescence microscopy, FIG. 2
Procedure: as §1
(§2) The dewaxed brain tissue was fixed in a 10% neutral buffer of formalin solution, embedded with paraffin, and then sliced with a thickness of 6 μm. The staining method is the same as the above method for DLB patients.

T3 sequence (P05067 672-713 limits assumed): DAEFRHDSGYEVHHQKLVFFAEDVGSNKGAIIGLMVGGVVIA

| Compound | Staining/binding of Aβ lesions in AD patient brain slices |
| --- | --- |
| Fc1ccc(-c2ccc3nc(-c4ccc(N5CCCC5)nc4)oc3c2)cn1 [I-6] | could also detect Aβ lesions; also recorded: very weak binding |
| CN1CCN(c2ccc3oc(-c4ccc(N(C)C)nc4)nc3c2)C(=O)C1 [I-4] | could also detect Aβ lesions; also recorded: very weak binding |
| Fc1ccc(-c2ccc3oc(-c4ccc(N5CCCC5)nc4)nc3c2)cn1 [I-5] | could also detect Aβ lesions; also recorded: very weak binding |

Tested on: Tau neurofibrillary filaments
Assay: Fluorescence staining of brain slices from patients with Alzheimer's disease (AD), Tau
Format: binding, human
Details: 30 μM compound, superior temporal gyrus sections 6 μm, fluorescence microscopy, FIG. 2
Procedure: as §1, §2

| Compound | Staining/binding of Tau neurofibrillary filaments in AD patient brain slices |
| --- | --- |
| Fc1ccc(-c2ccc3nc(-c4ccc(N5CCCC5)nc4)oc3c2)cn1 [I-6] | fail to Tau neurofibrillary filaments; also recorded: no binding |
| CN1CCN(c2ccc3oc(-c4ccc(N(C)C)nc4)nc3c2)C(=O)C1 [I-4] | fail to Tau neurofibrillary filaments; also recorded: no binding |
| Fc1ccc(-c2ccc3oc(-c4ccc(N5CCCC5)nc4)nc3c2)cn1 [I-5] | fail to Tau neurofibrillary filaments; also recorded: no binding |

Tested on: not listed separately
Assay: Blood-brain barrier permeability test, rat tail vein injection
Format: in vivo
Details: brain / blood supernatant after centrifugation, intravenous, SD rats, 5 mg/kg tail vein, 20 min after administration, LC-MS/MS, read-out: brain/blood ratio
Procedure: The compound of the invention is injected into a rat tail vein to determine the blood-brain barrier permeability in vivo according to the following method.
Dissolve the tested compound in DMSO, and add castor oil and PBS for dilution (DMSO:castor oil:PBS=1:1:8). SD rats were weighed and given 5 mg/kg in the tail vein. 500 μL of blood was taken 20 min after administration after anesthetized with isoflurane. Cardiac perfusion was performed with 200 mL PBS and stopped until the organ faded, following brain tissue was got out and washed with PBS.
After centrifuging the extracted blood at 9000 rpm for 5 min, 200 μL supernatant was taken and added 800 μL methanol. After centrifuging at 14000 rpm for 10 min, the supernatant was taken and filtered through a 0.22 μm filter membrane and stored at −80° C. for use.
2 mL PBS and 2 mL methanol were added to about 0.5 g of brain tissue to make a tissue homogenization, and then 1 mL homogenate was taken out and centrifuged at 14,000 rpm for 10 min after 2 mL methanol was added, 1 mL supernatant was taken through 0.22 μm filter membrane and stored at −80° C. for use. The concentration of compounds in the above supernatant of blood and brain homogenate were checked by LC-MS/MS, respectively.

| Compound | Kp at 20 min |
| --- | --- |
| Fc1ccc(-c2ccc3nc(-c4ccc(N5CCCC5)nc4)oc3c2)cn1 [I-6] | ≥ 1 |
| CN1CCN(c2ccc3oc(-c4ccc(N(C)C)nc4)nc3c2)C(=O)C1 [I-4] | ≥ 1 |
| Fc1ccc(-c2ccc3oc(-c4ccc(N5CCCC5)nc4)nc3c2)cn1 [I-5] | ≥ 1 |
